≈ marks a conversion by molar mass, not a printed value.
Columns and labels:
[1] = characterization of aerosol particles by laser light scattering (Malvern Mastersizer X); format: physicochemical; details: air flow 20L/min
Protocol: The "median diameter" (D(v;0.5)) of an aerosol refers to the diameter for which half the particulate mass of the aerosol consists of particles with a diameter larger than the median diameter and half by particles with a diameter smaller than the median diameter. The median diameter is measured by laser light scattering using for example a Malvern Mastersizer X or any equivalent apparatus working on the same principle of laser light scattering.
The "span" of a volume-based size distribution is defined by Span = (D(v;0.9) - D(v;0.1)) / D(v;0.5) and gives an indication of how far the 10 percent and 90 percent points are apart, normalized by the midpoint.
The "volume concentration" is the volume of particles reported to the total volume of the aerosol expressed as a percentage. The volume concentration is measured by laser light scattering using for example a Malvern Mastersizer X or any equivalent apparatus working on the same principle of laser light scattering.
Solutions containing 10 mg/g or 20 mg/g of clofoctol in various solvents were prepared. Aerosols were produced using a TAG (Vaporesso swag 2 with a coil resistance of 0.3 ohms) at different powers. The flow of aerosol was generated using an air flow of 20L/min. A certain volume of emitted aerosol was passed through the laser beam of a granulometer, Mastersizer X from Malvern.

[2] = physchem; format: physicochemical; details: for solubility at 48 h / solubility at 120 h: organic solvent or mixture
Protocol: Solutions of clofoctol were prepared in different solvents: 100% PG, 85/15 PG/Gly, 70/30 PG/Gly, 50/50 PG/Gly. Solutions were sonicated then incubated at 65°C for 30 min, until complete dissolution of clofoctol. Then, the samples were incubated at RT under stirring for different times. For collection before analysis after determined incubation times, the solutions were centrifuged, then the supernatants were collected and diluted before LC-MS/MS analysis for clofoctol quantitation in samples.

[3] = clofoctol purity in the aerosol after thermal aerosol generation (LC-UV-MS); format: physicochemical; details: for Mean purity: mean of puffs 1 and 2
Protocol: (§1) The purity of a clofoctol-containing aerosol, and quantitation of clofoctol in this aerosol was determined using a method that involves forming the aerosol in a device through which an air flow is maintained, generally at a rate between 1 and 180 L/min. The gas flow carries the aerosol into one or more traps. After extraction from the trap, the trapped components from the aerosol are subjected to an analytical technique, such as liquid chromatography, that permits a determination of composition and purity. The liquid chromatography discussed above contains a detection system (i.e., detector). Such detection systems are well known in the art and include, for example, UV detectors and mass spectrometry detectors. Liquid chromatography-mass spectrometry is the preferred analytical technique.
Solutions containing 20 mg/g of clofoctol in various solvents were prepared. Aerosols were produced using a TAG (Vaporesso swag 2 with a coil resistance of 0.3 ohms) at different powers. The flow of aerosol was generated using an air flow of 20 L/min. One or two successive puffs of 2.5s each was (were) done for each condition. For each puff, a certain volume of emitted aerosol was trapped on a plastic filter. Clofoctol was then extracted from the filter and analysed by LC-UV-MS.

[4] = aerosol drug mass density (TAG aerosol trapped on filter, LC-MS); format: physicochemical; details: airflow 34 L per minute; for Collected mass of clofoctol in the trap: 1.416 L aerosol trapped
Protocol: The term "aerosol" refers to a suspension of fine solid particles or liquid droplets in a gas. The expression "(aerosol) drug mass density" refers to the mass of clofoctol per unit volume of aerosol. It is calculated by measuring the quantity of clofoctol in a determined volume of aerosol beforehand trapped.
as §1
Solutions containing 20 mg/g of clofoctol in various solvents were prepared. Aerosols were produced using a TAG (Vaporesso swag 2 with a coil resistance of 0.3 ohms) at different powers and an airflow of 34 L per minute. 1.416 L of emitted aerosol was trapped on a plastic filter. Clofoctol was then extracted from the filter and dosed by LC-MS to determine the drug mass density.

[5] = in vivo; parameters: species or system Mice; details: mouse, inhaled or intranasal
Protocol: Mice (Charles River, Female CD-1, 20-23 g) were permitted water and food ad libitum during the experiment. Clofoctol was administrated by Nose-Only inhalation in a homemade inhalation chamber in part inspired by a previous described apparatus (ref. 6). Animals were acclimated to restraint during a week before the experiment started. Animals were exposed to an aerosol generated (using a TAG connected to the chamber: Vaporesso swag 2 with a coil resistance of 0.3 ohms) from a solution of 20 mg/g of clofoctol ([…]/Glycerin, 85/15) for a period of 15 min with a puff of 4.5 s every minute (with a power of 30W).
Blood and lungs (left lung) were sampled 5, 10, 15, 30, 60 and 120 minutes after the end of a single inhalation period (2 mice/sampling time). The blood was sampled in tubes with Lithium Heparin on ice and then the plasma was separated from the red cells by centrifugation and frozen (-80°C).
A known mass (approximately 15mg, weighed beforehand) of each lung was placed into a 'safe lock' microtube (2 mL). […]
The unknown lung concentrations of clofoctol were calculated from a calibration line produced in the same matrix (naive lung from 'vehicle' animals) and reprocessed in the same way as the samples (homogenization in ethanol).

[6] = aerosol from 10 mg/g CFT in 85/15 PG/Gly, power 30 W
[7] = aerosol from 10 mg/g CFT in 85/15 PG/Gly, power 45 W
[8] = aerosol from 10 mg/g CFT in 85/15 PG/Gly, power 60 W
[9] = aerosol from 20 mg/g CFT in 70/30 PG/Gly, power 30 W
[10] = aerosol from 20 mg/g CFT in 85/15 PG/Gly, power 30 W
[11] = aerosol from 20 mg/g CFT in 100% PG, power 30 W
[12] = 20 mg/g clofoctol in 70/30 PG/Gly, TAG power 30 W
[13] = 20 mg/g clofoctol in 85/15 PG/Gly, TAG power 30 W
[14] = 20 mg/g clofoctol in 85/15 PG/Gly, TAG power 50 W
[15] = 20 mg/g clofoctol in 85/15 PG/Gly, TAG power 80 W
[16] = 20 mg/g clofoctol in 100% PG, TAG power 30 W

Mean diameter [1, 6]: 2.45 µm
Median diameter [1, 6]: 2.42 µm
Sauter diameter [1, 6]: 2.34 µm
Span [1, 6]: 0.519
Volume conc. [1, 6]: 0.0052%
Mean diameter [1, 7]: 2.40 µm
Median diameter [1, 7]: 2.38 µm
Sauter diameter [1, 7]: 2.30 µm
Span [1, 7]: 0.523
Volume conc. [1, 7]: 0.0027%
Mean diameter [1, 8]: 2.63 µm
Median diameter [1, 8]: 2.59 µm
Sauter diameter [1, 8]: 2.46 µm
Span [1, 8]: 0.635
Volume conc. [1, 8]: 0.0018%
Mean diameter [1, 9]: 2.89 µm
Median diameter [1, 9]: 2.87 µm
Sauter diameter [1, 9]: 2.76 µm
Span [1, 9]: 0.551
Volume conc. [1, 9]: 0.0020%
Mean diameter [1, 10]: 2.41 µm
Median diameter [1, 10]: 2.38 µm
Sauter diameter [1, 10]: 2.30 µm
Span [1, 10]: 0.543
Volume conc. [1, 10]: 0.0016%
Mean diameter [1, 11]: 2.78 µm
Median diameter [1, 11]: 2.75 µm
Sauter diameter [1, 11]: 2.66 µm
Span [1, 11]: 0.521
Volume conc. [1, 11]: 0.0038%
solubility at 48 h ([2]; 50/50 pg/gly): 7.9 mM (≈ 2.89 mg/mL)
solubility at 120 h ([2]; 50/50 pg/gly): 6.7 mM (≈ 2.45 mg/mL)
solubility at 48 h ([2]; 70/30 pg/gly): 29.8 mM (≈ 10.9 mg/mL)
solubility at 120 h ([2]; 70/30 pg/gly): 28.1 mM (≈ 10.3 mg/mL)
solubility at 48 h ([2]; 85/15 pg/gly): 504 mM (≈ 184 mg/mL)
solubility at 120 h ([2]; 85/15 pg/gly): 147 mM (≈ 53.6 mg/mL)
solubility at 48 h ([2]; 100% pg): 489 mM (≈ 179 mg/mL)
solubility at 120 h ([2]; 100% pg): 441 mM (≈ 161 mg/mL)
maximum concentration achieved ([2]; 7200 min): about 15 % by weight
Mean purity ([3]; aerosol from 20 mg/g clofoctol in 70/30 PG/Gly, power 30 W): 100.0%
Purity CFT ([3]; aerosol from 20 mg/g clofoctol in 70/30 PG/Gly, power 30 W, puff number 1): 100.0%
Purity CFT ([3]; aerosol from 20 mg/g clofoctol in 70/30 PG/Gly, power 30 W, puff number 2): 100.0%
Mean purity ([3]; aerosol from 20 mg/g clofoctol in 70/30 PG/Gly, power 80 W): 91.0%
Purity CFT ([3]; aerosol from 20 mg/g clofoctol in 70/30 PG/Gly, power 80 W, puff number 1): 91.4%
Purity CFT ([3]; aerosol from 20 mg/g clofoctol in 70/30 PG/Gly, power 80 W, puff number 2): 90.6%
Mean purity ([3]; aerosol from 20 mg/g clofoctol in 100% PG, power 30 W): 100.0%
Purity CFT ([3]; aerosol from 20 mg/g clofoctol in 100% PG, power 30 W, puff number 1): 100.0%
Purity CFT ([3]; aerosol from 20 mg/g clofoctol in 100% PG, power 30 W, puff number 2): 100.0%
Mean purity ([3]; aerosol from 20 mg/g clofoctol in 100% PG, power 80 W): 87.4%
Purity CFT ([3]; aerosol from 20 mg/g clofoctol in 100% PG, power 80 W, puff number 1): 92.0%
Purity CFT ([3]; aerosol from 20 mg/g clofoctol in 100% PG, power 80 W, puff number 2): 82.7%
Drug mass density [4, 12]: 0.091 mg/L
Collected mass of clofoctol in the trap [4, 12]: 128.3 µg
Drug mass density [4, 13]: 0.096 mg/L
Collected mass of clofoctol in the trap [4, 13]: 135.8 µg
Drug mass density [4, 14]: 0.099 mg/L
Collected mass of clofoctol in the trap [4, 14]: 141.1 µg
Drug mass density [4, 15]: 0.071 mg/L
Collected mass of clofoctol in the trap [4, 15]: 100.5 µg
Drug mass density [4, 16]: 0.159 mg/L
Collected mass of clofoctol in the trap [4, 16]: 225.6 µg
Tmax [5]: ≤ 5 min
Compound: CC(C)(C)CC(C)(C)c1ccc(O)c(Cc2ccc(Cl)cc2Cl)c1 [clofoctol, 2-[(2,4-dichlorophenyl)methyl]-4-(2,4,4-trimethylpentan-2-yl)phenol]
